Laboratory results as given in patent US7176231B2, “Aryl-containing 5-acylindolinones, the preparation thereof and their use as medicaments” (Boehringer Ingelheim International GmbH, priority 2004, dated 2007).

Key:
db/db mice = assay: Oral glucose tolerance test; assay type: in vivo; settings: fasted db/db mice, 2 g/kg glucose orally 30 minutes after substance
Description: Fasted db/db mice 7 to 9 weeks old (Janvier, France) are weighed and blood is taken from the tip of the tail. This blood is used for the first measurement of glucose on the basis of which the animals are randomised and divided into groups. The test substance to be tested may be given either orally or i.p. as a suspension in 0.5% Natrosol. 30 minutes after the administration of the substance the animals are given orally 2 g/kg glucose in a volume of 0.1 ml/100 g body weight dissolved in NaCl solution. Subsequently, the glucose values are determined from the tail blood using a glucometer (Ultra OneTouch, Lifescan) at specific time intervals [30, 60, 120 and 180 minutes after oral administration of the glucose].

mice = assay: Tolerability after oral administration to mice; assay type: in vivo; settings: oral administration of 10 mg/kg to mice

**Q.** With CC(=O)c1ccc2c(c1)/C(=C(/Nc1ccc(CN(C)C)cc1)c1ccc3c(c1)OCCO3)C(=O)N2 [Example 1.051, 5-acetyl-3-{[4-(dimethylamino-methyl)-phenylamino]-(2,3-dihydro-benzo[1,4]-dioxin-6-yl)-methylidene}-2-indolinone] as the compound, how does the “activity in the oral glucose tolerance test” value (db/db mice) read?
**A.** significant activity

**Q.** What about the “changes in the animals' behaviour” value (mice) of the same compound?
**A.** no changes were observed
